Reference: patent US10351847B2, “Identification and display of peptide ligands” (OXFORD UNIVERSITY INNOVATION LIMITED, priority 2013, dated 2019)
“Also recorded” adds a separate entry of the source. Like-named read-outs stand apart in the source and are kept apart here. Ends that are not written are not given here. GS linker = not defined here

Columns and labels:
[1] = test system: HIV-1 (HIV BAL, IIIB, clade C)
[2] = test system: gp120
Experimental: ELISA plate (Greiner, 655061) was coated with 1 μg/ml purified gp120 in PBS and incubated at 4° C. overnight. The plate was washed with ELISA wash buffer (PBS, 0.05% Tween20, VWR) followed by 100 μl blocking buffer (PBS, 0.05% Tween20, 2% BSA powder, Sigma) for 1 hr at room temperature. For antibody blocking experiment, V3/VRC01/F105 antibodies (NIBSC, CFAR3219/3291/3115) were used in 1 μg/ml for 1 hr at room temperature. After blocking, the plates were washed and peptides were added at different concentrations and incubate for 1 hr at room temperature. After washes, the detection of the binding was done by the addition of streptavidin conjugated peroxidase (Sigma, at 1:2500 dilution in PBS for 1 hr at room temperature and developed by TMB substrate (Thermo, 8008743723). After colour change was observed, stop buffer (0.16 M sulphuric acid, Sigma) was added to stop the reaction, and the absorbance was read at OD450 with ELISA plate reader.

[3] = test system: HIV-1 BaL; assay: HIV-1 inhibition assay (intracellular p24 in CD4+ cells of PBMC); settings: for inhibition of HIV-1 BaL infection: without streptavidin conjugation
[4] = test system: HIV-1 JRFL gp120; assay: ELISA for binding between predicted peptides and gp120; settings: compared to negative control HA2 (hemagglutinin-binding peptide)
[5] = test system: purified gp120; assay: Surface plasmon resonance (BIAcore) KD of peptides to gp120; type: binding, HIV-1
Experimental: Immobilisation of purified gp120 protein (1 mg/ml) and purified HLA-A2 heavy chain (reference control, 1 mg/ml) onto the surface of individual flow-cells (Fc1 and Fc2 respectively) of CM5 sensor chip (GE Healthcare) was performed under conditions of 20 μl/min flow rate and 25° C., with HBS-EP buffer (0.01 M HEPES pH 7.4, 0.15 M NaCl, 0.005% v/v Surfactant P20; GE Healthcare) as the running buffer. After initiating the system, 100 μl 0.05M solution of EDC [1-ethyl-3-(3-dimethylaminopropyl) carbodiimide]/NHS (N-Hydroxysuccinimide) at 1:1 ratio was injected to activate the dextran matrix of the sensor chip surface. After immobilisation, 150 μl of 1M ethanolamine hydrochloride was injected to deactivate the unreacted carboxylmethyl groups on the dextran matrix. Finally, 30 μl of Glycine pH2.5 was injected to remove any non-covalently bound proteins.
The affinity analyses of the interaction between 9-amino-acid predicted peptides and purified gp120 were performed using the BIAcore T200 (GE Healthcare), under conditions of 10 μl/min flow rate and 25° C. and using HBS-EP buffer (0.01 M HEPES pH 7.4, 0.15 M NaCl, 0.005% v/v Surfactant P20; GE Healthcare) as the running buffer. Prior to experiment, the 9-amino-acid peptides were diluted to 1 mg/ml with HBS-EP buffer. A 2-fold serial dilution of totally 8 concentrations was used to pass through the […]. The data were analysed using Microcal Origin version 7.5 (Microcal Software Limited).
In order to obtain quantitative measurements of binding reactions between predicted peptides and gp120, surface plasmon resonance (BIAcore) was used to measure the equilibrium dissociation constant KD of the predicted peptides and gp120. […] Since the KD to gp120 is relative to different analytes, purified protein HLA-A*0201 heavy chain was used as a reference control to measure the relative binding affinity of peptides to gp120. Purified gp120 and HLA-A*0201 were immobilised on chips, and the peptides were passed through both flow cells at a constant rate of 10 μl/min. […] The BIcore experiment acted as a second confirmation that the randomised peptide library had successfully captured peptides which bind to gp120 in a single round of selection, and that the sequence information coding the binding peptides was correctly preserved and sequenced.

[6] = test system: HIV-1 IIIB; assay: HIV-1 inhibition assay (intracellular p24 in CD4+ cells of PBMC); type: cell-based; settings: CXCR4 tropic virus
[7] = test system: JRFL gp120 / recombinant CCR5; type: binding, HIV-1; settings: 125 ng peptide

| Compound | HIV-1 inhibition (in words) [1] | cross clade HIV-1 inhibitory activity [1] | binding to gp120 on ELISA (absorbance) [4] | affinity to gp120 (ranking) [5] | also measured |
| --- | --- | --- | --- | --- | --- |
| CC(C)C[C@H](NC(=O)[C@H](CC(C)C)NC(=O)[C@H](CC(N)=O)NC(=O)[C@H](CC(C)C)NC(=O)[C@H](CCCNC(=N)N)NC(=O)[C@H](CCCNC(=N)N)NC(=O)[C@H](CS)NC(=O)[C@H](Cc1c[nH]c2ccccc12)NC(=O)[C@@H](N)CC(C)C)C(=O)NCC(=O)NCC(=O)NCC(=O)NCC(=O)NCC(=O)NCC(=O)N[C@@H](CO)C(=O)NCC(=O)NCC(=O)N[C@@H](CO)C(=O)NCC(=O)N[C@@H](CCCCNC(=O)CCCC[C@@H]1SC[C@@H]2NC(=O)N[C@@H]21)C(=O)O [GP16] | greatest inhibition | exhibited cross clade HIV-1 inhibitory activity | significantly higher binding; also recorded: higher absorbance; also recorded: highest binding affinity | highest affinity | reduction in absorbance of peptide binding to gp120 ([2]; gp120 blocked with any of the three antibodies (V3, VRC01, F105)): no reduction; inhibition of HIV-1 BaL infection ([3]; 50 μM): less than 1%; inhibition of HIV-1 BaL infection ([3]; 100 μM): less than 1%; inhibition of HIV-1 BaL infection ([3]; 250 μM): 50% |
| LLALSAYMV [GP11] |  | exhibited cross clade HIV-1 inhibitory activity | significantly higher binding; also recorded: higher absorbance | highest affinity |  |
| LVLLSSASS [GP5] |  |  |  | highest affinity |  |
| RRRNVPLIL (RRRNVPLIL-{GS linker-K(biotin)}; reading uncertain) [GP2] |  |  | significantly higher binding; also recorded: higher absorbance |  |  |
| SSCSVRSSCRLYYSC [GP21] | did not show any HIV-1 inhibition |  | did not show any binding |  |  |
| SYSFCPRRQ (also: GS linker and biotinylated lysine, end not given here) [GP3] | greatest inhibition | exhibited cross clade HIV-1 inhibitory activity | significantly higher binding; also recorded: higher absorbance | highest affinity | reduction in absorbance of peptide binding to gp120 ([2]; gp120 pre-blocked with V3 antibody): significant reduction; inhibition of replication [6]: no inhibition; inhibition of HIV-1 BaL infection ([3]; 50 μM): no inhibitory effect; inhibition of HIV-1 BaL infection ([3]; 100 μM): 34.5%; inhibition of HIV-1 BaL infection ([3]; 250 μM): 54.7%; inhibition of replication ([3]; CCR5 tropic virus): exhibited inhibition; reduction in absorbance (recombinant CCR5 binding to gp120) [7]: 65.8% |
| enfuvirtide |  |  |  |  | viral inhibition ([1]; positive control, 50 μM): 91.1% |
